Species on record: Rattus norvegicus
Experiment: Open TG-GATES - Regimen: Single
Format: toxicity, organism-based, Sprague-Dawley
Set-up: regimen Single, gender Male, age 6 weeks
Conditions: in vivo, po, 15 mg/kg, route gavage, dose level Low; for APTT / Bas / Eos / Fbg / Hb / Ht / Lym / MCH / MCHC / MCV / Mono / Neu / PT / Plat / RBC / Ret / WBC: tissue Blood; for KIDNEY_L / KIDNEY_R / KIDNEY_TOTAL: tissue Kidney; for LIVER: tissue Liver; for A/G / ALP / ALT / AST / BUN / CRE / Ca / Cl / DBIL / GLC / IP / K / LDH / Na / PL / RALB / TBIL / TC / TG / TP / gamma-GTP: tissue Plasma

## O=c1ccc2ccccc2o1 [COUMARIN]
3 h
  TERMINAL_BW: 178.4 g
  APTT: 16.5 s
  Bas: 0%
  Eos: 1%
  Fbg: 205.2 mg/dL
  Hb: 13.6 g/dL
  Ht: 40.8%
  Lym: 82.2%
  MCH: 21.3 pg
  MCHC: 33.4%
  MCV: 63.7 fL
  Mono: 3.8%
  Neu: 13.4%
  PT: 12.4 s
  Plat: 97.1 x10_4/uL
  RBC: 640 x10_4/ul
  Ret: 8.2%
  WBC: 97 x10_2/uL
  KIDNEY_L: 0.8 g
  KIDNEY_R: 0.8 g
  KIDNEY_TOTAL: 1.7 g
  LIVER: 8 g
  A/G: 2
  ALP: 1069.4 IU/L
  ALT: 41.6 IU/L
  AST: 71.8 IU/L
  BUN: 10.2 mg/dL
  CRE: 0.4 mg/dL
  Ca: 10.6 mg/dL
  Cl: 105.6 meq/L
  DBIL: 0.006 mg/dL
  GLC: 182.4 mg/dL
  IP: 10.4 mg/dL
  K: 4.7 meq/L
  LDH: 84.8 IU/L
  Na: 138 meq/L
  PL: 161.6 mg/dL
  RALB: 3.9 g/dL
  TBIL: 0.4 mg/dL
  TC: 86 mg/dL
  TG: 115 mg/dL
  TP: 5.9 g/dL
  gamma-GTP: 1.4 IU/L
6 h
  TERMINAL_BW: 180.2 g
  APTT: 16.4 s
  Bas: 0%
  Eos: 1.2%
  Fbg: 189.2 mg/dL
  Hb: 13.5 g/dL
  Ht: 40.5%
  Lym: 76%
  MCH: 21.9 pg
  MCHC: 33.2%
  MCV: 65.9 fL
  Mono: 5%
  Neu: 18.4%
  PT: 12.5 s
  Plat: 109.6 x10_4/uL
  RBC: 614.6 x10_4/ul
  Ret: 9.4%
  WBC: 95.4 x10_2/uL
  KIDNEY_L: 0.8 g
  KIDNEY_R: 0.8 g
  KIDNEY_TOTAL: 1.7 g
  LIVER: 8 g
  A/G: 2.1
  ALP: 872 IU/L
  ALT: 33.6 IU/L
  AST: 65 IU/L
  BUN: 9 mg/dL
  CRE: 0.4 mg/dL
  Ca: 10.3 mg/dL
  Cl: 107.2 meq/L
  DBIL: 0.004 mg/dL
  GLC: 189.6 mg/dL
  IP: 10.4 mg/dL
  K: 5.2 meq/L
  LDH: 88 IU/L
  Na: 138 meq/L
  PL: 136 mg/dL
  RALB: 3.7 g/dL
  TBIL: 0.3 mg/dL
  TC: 75.2 mg/dL
  TG: 63 mg/dL
  TP: 5.5 g/dL
  gamma-GTP: 1.2 IU/L
9 h
  TERMINAL_BW: 177.8 g
  APTT: 16.1 s
  Bas: 0%
  Eos: 0.8%
  Fbg: 198.2 mg/dL
  Hb: 13.2 g/dL
  Ht: 40.1%
  Lym: 78.2%
  MCH: 22 pg
  MCHC: 33%
  MCV: 66.6 fL
  Mono: 6.4%
  Neu: 14.6%
  PT: 12.3 s
  Plat: 103 x10_4/uL
  RBC: 602 x10_4/ul
  Ret: 8.7%
  WBC: 85.8 x10_2/uL
  KIDNEY_L: 0.8 g
  KIDNEY_R: 0.9 g
  KIDNEY_TOTAL: 1.7 g
  LIVER: 7.2 g
  A/G: 2.3
  ALP: 849 IU/L
  ALT: 30.6 IU/L
  AST: 62 IU/L
  BUN: 9.8 mg/dL
  CRE: 0.5 mg/dL
  Ca: 10.6 mg/dL
  Cl: 106.8 meq/L
  DBIL: 0.03 mg/dL
  GLC: 195 mg/dL
  IP: 11.6 mg/dL
  K: 5.1 meq/L
  LDH: 102 IU/L
  Na: 139.4 meq/L
  PL: 141 mg/dL
  RALB: 3.8 g/dL
  TBIL: 0.3 mg/dL
  TC: 81.4 mg/dL
  TG: 37.4 mg/dL
  TP: 5.5 g/dL
  gamma-GTP: 1.2 IU/L
24 h
  TERMINAL_BW: 189.8 g
  APTT: 15.7 s
  Bas: 0%
  Eos: 1%
  Fbg: 208.2 mg/dL
  Hb: 13.2 g/dL
  Ht: 39.7%
  Lym: 74.2%
  MCH: 22.3 pg
  MCHC: 33.3%
  MCV: 66.9 fL
  Mono: 10.6%
  Neu: 14.2%
  PT: 12.2 s
  Plat: 102.6 x10_4/uL
  RBC: 594.2 x10_4/ul
  Ret: 8.2%
  WBC: 102.3 x10_2/uL
  KIDNEY_L: 0.9 g
  KIDNEY_R: 0.9 g
  KIDNEY_TOTAL: 1.8 g
  LIVER: 9.3 g
  A/G: 2.1
  ALP: 972.2 IU/L
  ALT: 43 IU/L
  AST: 68.2 IU/L
  BUN: 14 mg/dL
  CRE: 0.5 mg/dL
  Ca: 10.9 mg/dL
  Cl: 106.2 meq/L
  DBIL: 0.01 mg/dL
  GLC: 190.8 mg/dL
  IP: 8.4 mg/dL
  K: 5.2 meq/L
  LDH: 97.4 IU/L
  Na: 137.8 meq/L
  PL: 140.4 mg/dL
  RALB: 3.8 g/dL
  TBIL: 0.3 mg/dL
  TC: 76.8 mg/dL
  TG: 77.2 mg/dL
  TP: 5.7 g/dL
  gamma-GTP: 1 IU/L

— ChEMBL document CHEMBL3885861, “Open TG-GATES”
